Measured values: ChEMBL document CHEMBL1212919, “An efficient approach to the discovery of potent inhibitors against glycosyltransferases” (J Med Chem, 2010)
One block for each compound: values may come before it.

Legend:
[1] = species: Rattus norvegicus
Description: Inhibition of rat recombinant alpha 2,6-(N)-sialyltransferase 1 by Lineweaver-Burke plot analysis

[2] = biological target: T1, CMP-N-acetylneuraminate-beta-1,4-galactoside alpha-2,3-sialyltransferase (Rattus norvegicus, UniProt Q02734); test: Inhibition of rat recombinant alpha 2,3-(N)-sialyltransferase 3
T1 sequence (Q02734 whole entry): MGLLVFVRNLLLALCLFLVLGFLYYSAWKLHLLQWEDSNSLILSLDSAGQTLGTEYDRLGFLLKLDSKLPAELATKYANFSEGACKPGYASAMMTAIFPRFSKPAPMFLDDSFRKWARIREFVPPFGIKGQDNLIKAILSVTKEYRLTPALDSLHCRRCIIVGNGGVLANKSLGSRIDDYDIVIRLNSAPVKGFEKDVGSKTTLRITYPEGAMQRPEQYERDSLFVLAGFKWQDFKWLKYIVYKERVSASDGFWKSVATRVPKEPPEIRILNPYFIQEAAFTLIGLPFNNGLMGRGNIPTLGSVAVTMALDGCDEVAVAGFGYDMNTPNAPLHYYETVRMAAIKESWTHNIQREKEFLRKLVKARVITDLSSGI

[3] = Inhibition of alpha-(1,6)-fucosyltransferase after 60 mins by Lineweaver-Burke plot analysis
[4] = Inhibition of alpha-(1,3)-fucosyltransferase after 60 mins by Lineweaver-Burke plot analysis

Km [1]: 125 µM
IC50 [2]: 8.2 µM
SMILES: C[C@]12CC[C@@H]3c4ccc(O)cc4CC[C@H]3[C@@H]1CC[C@@]2(O)c1cn(CC(=O)N[C@H]2[C@H]([C@H](O)[C@H](O)CO)O[C@](OP(=O)(O)OC[C@H]3O[C@@H](n4ccc(N)nc4=O)[C@H](O)[C@@H]3O)(C(=O)O)C[C@@H]2O)nn1

Ki [3]: 13.8 µM
SMILES: CCCCCc1ccc(-c2cn(C[C@@H]3O[C@H](OP(=O)(O)OP(=O)(O)OC[C@H]4O[C@@H](n5cnc6c(=O)[nH]c(N)nc65)[C@H](O)[C@@H]4O)[C@@H](O)[C@H](O)[C@@H]3O)nn2)cc1

Ki [4]: 0.293 µM
SMILES: C[C@]12CC[C@@H]3c4ccc(O)cc4CC[C@H]3[C@@H]1CC[C@@]2(O)c1cn(C[C@@H]2O[C@H](OP(=O)(O)OP(=O)(O)OC[C@H]3O[C@@H](n4cnc5c(=O)[nH]c(N)nc54)[C@H](O)[C@@H]3O)[C@@H](O)[C@H](O)[C@@H]2O)nn1
